Laboratory results: patent publication US20120225093A1, “Abrogating HIV-1 Infection via Drug-Induced Reactivation of Apoptosis” (UNIVERSITY OF MEDICINE AND DENTISTRY OF NEW JERSEY, priority 2010, published 2012)

How the values were obtained:
H9-HIV cells [1] = experiment: 89-kDa PARP fragment by flow cytometry in H9-HIV cells; format: cell-based; settings: 30 μM CPX, 24 hr
Procedure: Intracellular antigens were determined, as geometric means of fluorescence, by flow cytometric analysis using a BD FACSCalibur™ and its BD FACStation System™ (Becton Dickinson; San Jose, Calif.). Intracellular antigens were stained according to the instrument producer's instructions. Anti-HIV-1 Tat antibody was from Abcam Inc. (Cambridge, Mass.); anti-HIV-1 Vpr from Santa Cruz Biotechnology (Santa Cruz, Calif.); anti-HIV-1 Rev from Advanced Biotechnologies Inc. (Columbia, Md.); anti-HIV-1 p24 (KC57) from Beckman Coulter, Miami, Fla.; monoclonal C92-605 anti-human caspase-3 (active form) from Pharmingen (BD Biosciences, San Diego, Calif.); monoclonal F21-852 anti-human poly (ADP-ribose) polymerase (caspase-cleaved 89-kDa fragment); and monoclonal 6C8 anti-human Bcl-2 from Becton Dickinson (BD Biosciences; San Diego, Calif.).
To determine whether the differential effects of the drugs extend into late apoptosis, PARP fragmentation in H9 and H9-HIV cells was measured. CPX caused an ˜8-fold increase in H9-HIV cells positive for 89-kDa PARP, compared to a ˜2 fold increase in H9 cells (FIG. 9A). By 24 hr, twice as many cells stained positive for 89-kDa PARP in the infected cultures as in uninfected cultures (27% compared to 14%; FIG. 9B). […] It is concluded that the retroviral suppression of initiation and execution of apoptosis is reversed by the drugs and transformed into enhanced susceptibility of HIV-infected cells to apoptosis.

IL-10 = IL-10 secretion by PBMC cultures (cytometric bead array); format: cell-based, human; settings: CPX added at inoculation or 12 hr later; Phase I
Procedure: (§1) Uninfected PBMCs were co-incubated with infected PBMC stock in 24-well microplates at 2 ml/well Medium B, at a 10:1 ratio of uninfected-to-infected cells, and a total cell number of 1×10^6. Cultures were maintained and assayed for 6 consecutive days. CPX or Agent P2 was added at the time of inoculation or 12 hr later. Leaving the cell layer undisturbed, half the medium in each well was replenished every day, with concurrent adjustment of compound concentration. On each day during the 6-day experiments, a set of wells was harvested: the cells were processed for determination of viability and apoptosis, and the cell-free supernatants were stored at −80° C. for p24 and viral RNA measurements. Experiments were performed at least in duplicate and repeated at least twice.
p24 core antigen in the supernatant was quantified by ELISA (Retrotek HIV-1 p24™; ZeptoMetrix Corp.; Buffalo, N.Y.). HIV-1 RNA copy number in the supernatant was determined with a PCR-based and FDA-approved assay (Amplicor HIV-1 Monitor™; Roche Diagnostics Corp.; Indianapolis, Ind.). IFN-γ and IL-10 in the supernatant were determined by cytometric bead array (Human Th1/Th2 Cytokine Kit II™; BD Biosciences Pharmingen, San Jose, Calif.).
To further assess the cellular effects of CPX, the secretion of interferon (IFN)-γ and interleukin (IL)-10 was measured. […]

HIV-infected PBMCs = experiment: TUNEL apoptosis in HIV-1 exposed PBMC cultures; format: cell-based, human; settings: CPX 30 μM
Procedure: as §1, with “Experiments were performed at least in duplicate and repeated at least twice.” left out
The potential across the mitochondrial membrane of live cells was determined flow-cytometrically with the lipophilic cationic fluorochrome JC-1 (5,5′,6,6′-tetrachloro-1,1′,3,3′-tetraethylbenzimidazolcarbocyanine iodide) immediately after sample harvest (BD™ Mitoscreen Kit, BD Biosciences; San Diego, Calif.). DNA fragmentation was quantified flow-cytometrically, using a TUNEL (terminal deoxynucleotide transferase dUTP nick end-labeling) assay (APO-BRDU™; Phoenix Flow Systems; San Diego, Calif.) and a dual-color assay for annexin V binding and 7-AAD exclusion (Annexin V-PE 7-AAD Apoptosis Detection Kit I™; BD Biosciences Pharmingen, San Jose, Calif.). […]

H9-HIV cells [2] = experiment: TUNEL DNA fragmentation in H9-HIV cells; format: cell-based; settings: 24 hr; between 10 and 20 μM CPX, leveled off at 40 μM
Procedure: The potential across the mitochondrial membrane of live cells was determined flow-cytometrically with the lipophilic cationic fluorochrome JC-1 (5,5′,6,6′-tetrachloro-1,1′,3,3′-tetraethylbenzimidazolcarbocyanine iodide) immediately after sample harvest (BD™ Mitoscreen Kit, BD Biosciences; San Diego, Calif.). DNA fragmentation was quantified flow-cytometrically, using a TUNEL (terminal deoxynucleotide transferase dUTP nick end-labeling) assay (APO-BRDU™; Phoenix Flow Systems; San Diego, Calif.) and a dual-color assay for annexin V binding and 7-AAD exclusion (Annexin V-PE 7-AAD Apoptosis Detection Kit I™; BD Biosciences Pharmingen, San Jose, Calif.). The apoptotic volume decrease of cells was assessed by the reduction of their diameter (VI-CELL™; Beckman Coulter; Fullerton, Calif.).
The relationship between iron chelation and apoptosis was assessed using the TUNEL assay to measure DNA fragmentation. DEF induces this late apoptotic event in HIV-expressing ACH-2 cells. Similarly, CPX triggered DNA fragmentation in H9-HIV cells in a dose-dependent manner with a steep, almost 10-fold increase in TUNEL-positive cells between 10 and 20 μM CPX that leveled off at 40 μM (FIG. 11C). […]

Cc1cc(C2CCCCC2)n(O)c(=O)c1 [CPX, 6-cyclohexyl-1-hydroxy-4-methylpyridin-2[1H]-one]
89-kDa PARP fluorescence intensity, infected versus uninfected (H9-HIV cells [1]): approximately one order of magnitude higher
cells positive for 89-kDa PARP (H9-HIV cells [1]): 27%
increase in cells positive for 89-kDa PARP (H9-HIV cells [1]; relative to untreated): ~8 fold
HIV-induced rise of IL-10 (IL-10): abolished the HIV-induced cytokine boost
apoptotic (TUNEL-positive) cells (HIV-infected PBMCs; 144 hr after inoculation): 71.8% (±8.8%)
increase in proportion of TUNEL-positive PBMCs (HIV-infected PBMCs; HIV-infected cultures): ~10 fold
increase in TUNEL-positive cells (H9-HIV cells [2]): ~10 fold
